Legend:
Format in all cases: in vivo
Settings in all cases: evaluated after 13 days
[1] = system: Echinochloa crus-galh (ECHCG); test: Pre-emergence herbicidal glasshouse test (Table B1)
How it was run: (§1)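 Spraying at 500 g/h unless indicated occurs either one day after sowing (pre-emergence) or after 8 days of cultivation (post-emergence). Percentage damage is then assessed after 13 days and binned as 5=80-100%, 4=60-79%, 3=40-59%, 2=20-39%, 1=0-19%.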

Setaria faberi (SETFA) [2] = test: as above
How it was run: as §1

[3] = system: Abutilon theophrasti (ABUTH); test: as above
How it was run: as §1

[4] = system: Ipomoea hederacea (IPOHE); test: as above
How it was run: as §1

[5] = system: Amaranthus retoflexus (AMARE); test: as above
How it was run: as §1

[6] = system: Echinochloa crus-galh (ECHCG); test: Post-emergence herbicidal glasshouse test (Table B1)
How it was run: as §1

Setaria faberi (SETFA) [7] = test: as above
How it was run: as §1

[8] = system: Abutilon theophrasti (ABUTH); test: as above
How it was run: as §1

[9] = system: Ipomoea hederacea (IPOHE); test: as above
How it was run: as §1

[10] = system: Amaranthus retoflexus (AMARE); test: as above
How it was run: as §1

| Compound | PRE Application ECHCG, percentage damage on five-point scale ([1]; applied at 500 g/h) | PRE Application SETFA, percentage damage on five-point scale (Setaria faberi (SETFA) [2]; applied at 500 g/h) | PRE Application ABUTH, percentage damage on five-point scale ([3]; applied at 500 g/h) | PRE Application IPOHE, percentage damage on five-point scale ([4]; applied) | PRE Application AMARE, percentage damage on five-point scale ([5]; applied at 500 g/h) | POST Application ECHCG, percentage damage on five-point scale ([6]; applied at 500 g/h) | POST Application SETFA, percentage damage on five-point scale (Setaria faberi (SETFA) [7]; applied at 500 g/h) | POST Application ABUTH, percentage damage on five-point scale ([8]; applied at 500 g/h) | POST Application IPOHE, percentage damage on five-point scale ([9]; applied at 500 g/h) | POST Application AMARE, percentage damage on five-point scale ([10]; applied at 500 g/h) | PRE Application SETFA, percentage damage on five-point scale (Setaria faberi (SETFA) [2]; applied at 125 g/ha) | PRE Application ABUTH, percentage damage on five-point scale ([3]; applied at 125 g/ha) | PRE Application IPOHE, percentage damage on five-point scale ([4]; applied at 125 g/ha) | PRE Application AMARE, percentage damage on five-point scale ([5]; applied at 125 g/ha) | POST Application ECHCG, percentage damage on five-point scale ([6]; applied at 125 g/ha) | POST Application SETFA, percentage damage on five-point scale (Setaria faberi (SETFA) [7]; applied at 125 g/ha) | POST Application ABUTH, percentage damage on five-point scale ([8]; applied at 125 g/ha) | POST Application IPOHE, percentage damage on five-point scale ([9]; applied at 125 g/ha) | POST Application AMARE, percentage damage on five-point scale ([10]; applied at 125 g/ha) | PRE Application ECHCG, percentage damage on five-point scale ([1]; applied at 125 g/ha) |
| --- | --- | --- | --- | --- | --- | --- | --- | --- | --- | --- | --- | --- | --- | --- | --- | --- | --- | --- | --- | --- |
| CCn1nnnc1NC(=O)c1ccc(OC(F)(F)F)c(NC(=O)CCOC)c1Cl [Compound 1.113] | 5 (5=80-100%) | 2 (2=20-39%) | 5 (5=80-100%) | 1 (1=0-19%) | 5 (5=80-100%) | 5 (5=80-100%) | 5 (5=80-100%) | 5 (5=80-100%) | 5 (5=80-100%) | 5 (5=80-100%) |  |  |  |  |  |  |  |  |  |  |
| CCCC(=O)Nc1c(OC(F)(F)F)ccc(C(=O)Nc2nnnn2C)c1Cl [Compound 1.121] | 5 (5=80-100%) | 1 (1=0-19%) | 4 (4=60-79%) | 2 (2=20-39%) | 5 (5=80-100%) | 5 (5=80-100%) | 5 (5=80-100%) | 5 (5=80-100%) | 5 (5=80-100%) | 5 (5=80-100%) |  |  |  |  |  |  |  |  |  |  |
| Cc1nnc(NC(=O)c2ccc(OC(F)(F)F)c(N3CCCCC3=O)c2Cl)o1 [Compound 2.004] | 5 (5=80-100%) | 5 (5=80-100%) | 4 (4=60-79%) | 1 (1=0-19%) | 5 (5=80-100%) | 5 (5=80-100%) | 5 (5=80-100%) | 5 (5=80-100%) | 5 (5=80-100%) | 5 (5=80-100%) |  |  |  |  |  |  |  |  |  |  |
| Cn1nnnc1NC(=O)c1ccc(OC(F)F)c(NC(=O)c2ncc(F)cc2F)c1Cl [Compound 1.089] |  |  |  |  |  |  |  |  |  |  | 3 (3=40-59%) | 2 (2=20-39%) | 3 (3=40-59%) | 5 (5=80-100%) | 2 (2=20-39%) | 4 (4=60-79%) | 3 (3=40-59%) | 3 (3=40-59%) | 4 (4=60-79%) |  |
| Cn1nnnc1NC(=O)c1ccc(OC(F)F)c(NC(=O)c2cc(Cl)ccn2)c1Cl [Compound 1.086] |  |  |  |  |  |  |  |  |  |  | 4 (4=60-79%) | 5 (5=80-100%) | 4 (4=60-79%) | 5 (5=80-100%) | 4 (4=60-79%) | 4 (4=60-79%) | 4 (4=60-79%) | 5 (5=80-100%) | 5 (5=80-100%) |  |
| CCn1nnnc1NC(=O)c1ccc(OC(F)(F)F)c(NC(=O)C(C)(C)C)c1Cl [Compound 1.106] | 5 (5=80-100%) | 5 (5=80-100%) | 5 (5=80-100%) |  | 5 (5=80-100%) | 5 (5=80-100%) | 5 (5=80-100%) | 5 (5=80-100%) | 5 (5=80-100%) | 5 (5=80-100%) |  |  |  |  |  |  |  |  |  |  |
| COc1cccc(C(=O)Nc2c(OC(F)F)ccc(C(=O)Nc3nnnn3C)c2Cl)n1 [Compound 1.085] |  |  |  |  |  |  |  |  |  |  | 3 (3=40-59%) | 5 (5=80-100%) | 3 (3=40-59%) | 4 (4=60-79%) | 4 (4=60-79%) | 4 (4=60-79%) | 4 (4=60-79%) | 4 (4=60-79%) | 4 (4=60-79%) |  |
| CC(=O)N(C)c1c(OC(F)(F)F)ccc(C(=O)Nc2nnnn2C)c1Cl [Compound 1.003] | 5 (5=80-100%) | 5 (5=80-100%) | 5 (5=80-100%) | 1 (1=0-19%) | 5 (5=80-100%) | 5 (5=80-100%) |  | 5 (5=80-100%) | 5 (5=80-100%) | 5 (5=80-100%) |  |  |  |  |  |  |  |  |  |  |
| CCC(C)C(=O)Nc1c(OC(F)(F)F)ccc(C(=O)Nc2nnnn2C)c1Cl (stereo not drawn) [Compound 1.055] |  |  |  |  |  |  |  |  |  |  |  | 5 (5=80-100%) | 4 (4=60-79%) | 5 (5=80-100%) | 5 (5=80-100%) | 5 (5=80-100%) | 5 (5=80-100%) | 4 (4=60-79%) | 5 (5=80-100%) | 5 (5=80-100%) |
| Cn1nnnc1NC(=O)c1ccc(OC(F)F)c(NC(=O)c2nc(Cl)ccc2Cl)c1Cl [Compound 1.088] |  |  |  |  |  |  |  |  |  |  | 5 (5=80-100%) | 4 (4=60-79%) | 4 (4=60-79%) | 5 (5=80-100%) | 3 (3=40-59%) | 4 (4=60-79%) | 4 (4=60-79%) | 4 (4=60-79%) | 4 (4=60-79%) |  |
| Cc1ncc(C(=O)Nc2c(OC(F)(F)F)ccc(C(=O)Nc3nnnn3C)c2Cl)s1 [Compound 1.010] | 1 (1=0-19%) | 2 (2=20-39%) | 5 (5=80-100%) | 2 (2=20-39%) | 5 (5=80-100%) | 5 (5=80-100%) | 5 (5=80-100%) | 5 (5=80-100%) | 5 (5=80-100%) |  |  |  |  |  |  |  |  |  |  |  |

Reference: US20230219904A1 (SYNGENTA CROP PROTECTION AG, priority 2020, published 2023)
